The values below come from patent US7728158B2, “PPAR activity regulators” (Ajinomoto Co., Inc., priority 2006, dated 2010).

For assay [1], the target named is T1, PPAR-γ (Homo sapiens, UniProt P37231).
T1 construct: expressed in transfected cells; host or cells: CV-1 (African green monkey kidney)
T1 sequence (P37231 204-505): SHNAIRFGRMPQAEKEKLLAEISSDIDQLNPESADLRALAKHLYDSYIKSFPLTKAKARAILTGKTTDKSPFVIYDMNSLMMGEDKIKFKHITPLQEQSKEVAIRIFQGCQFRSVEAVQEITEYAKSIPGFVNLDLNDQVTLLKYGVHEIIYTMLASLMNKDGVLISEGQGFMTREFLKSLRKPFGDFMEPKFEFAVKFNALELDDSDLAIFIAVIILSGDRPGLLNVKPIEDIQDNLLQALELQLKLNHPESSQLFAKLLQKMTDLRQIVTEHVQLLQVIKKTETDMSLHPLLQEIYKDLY
Put plainly: PPAR-γ reporter assay (GAL4 luciferase, CV-1 cells). Format: cell-based. To be noted: induction ratio of luciferase activity at 25 μM, activity without tested compound = 1, hGR-GAL4-hPPAR-γ. As for the experimental part:
The reporter assay of PPAR-γ was conducted by using the following plasmids in accordance with the known report (Steven A. Kliwer et al., The Journal of Biological Chemistry Vol. 270, No. 22: 12953-12956, 1995).
As luciferase expressing plasmid, used was the plasmid which introduces the sequence wherein 5 yeast GAL4 binding sequences, UAS, are tandemly connected to the upstream of the thymidine kinase promoter of pTAL-Luc (#6252-1, produced by Clontech) (UAS×5-TK-Luc) (1).
As PPAR-γ receptor expressing plasmid, used was the plasmid which introduces the N-terminal domain of human GR (1-76aa), the yeast GAL4 DNA binding domain (1-147aa) and PPAR-γ2 ligand binding domain (204-505aa) to NotI site and SalI site of pExchange-1 core vector (#211176, produced by Stratagene) (hGR-GAL4-hPPAR-γ) (2). The plasmid mixed solution used in the reporter assay of PPAR-γ contains above (1), (2) and plasmid pcDNA3.1(−) as a carrier in the weight ratio of 4:1:3.
(§1) CV-1 cells were seeded on the 384-well white plate (781080, produced by Greiner) to become 1.5×10^4 cells/30 μL per one well. Then, gene transfer was conducted in accordance with the manual by using OPTI-MEM I (11058-021, produced by GIBCO), FuGENE6 (1-815-075, produced by Roche) and the above PPAR-γ plasmid mixed solution. The incubation was conducted in a carbon-dioxide incubator at 37° C. for 6 to 8 hours. Then, a diluted tested compound was added thereto and incubated in a carbon-dioxide incubator at 37° C. for 16 to 18 hours. Britelite (6016979, produced by PerkinElmer) was further added thereto and stirred, and the luciferase activity was measured with EnVision (produced by PerkinElmer).
(§2) Specifying the luciferase activity without addition of a tested compound as 1, the induction ratio of the luciferase activity by each tested compound was calculated.
In general terms: A reporter such as luciferase makes a cellular process visible.

Assay [2] deals with T2, PPAR-α (Homo sapiens, UniProt Q07869).
T2 construct: expressed in transfected cells; host or cells: CV-1 (African green monkey kidney)
T2 sequence (Q07869 167-468): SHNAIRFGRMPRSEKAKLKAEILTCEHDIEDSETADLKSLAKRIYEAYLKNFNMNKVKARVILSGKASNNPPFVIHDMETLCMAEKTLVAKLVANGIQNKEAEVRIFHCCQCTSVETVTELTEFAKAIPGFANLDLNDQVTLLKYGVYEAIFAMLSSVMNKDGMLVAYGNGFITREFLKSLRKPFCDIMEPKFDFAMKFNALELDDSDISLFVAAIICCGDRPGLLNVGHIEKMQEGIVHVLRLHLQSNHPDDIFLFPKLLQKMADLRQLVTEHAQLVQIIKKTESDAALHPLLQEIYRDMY
Put plainly: PPAR-α reporter assay (GAL4 luciferase, CV-1 cells). Format: cell-based. The note with it: induction ratio of luciferase activity at 50 μM, activity without tested compound = 1, hGR-GAL4-hPPAR-α. As for the experimental part:
The reporter assay of PPAR (peroxisome proliferator-activated receptor)-α was conducted by using the following plasmids in accordance with the known report (Steven A. Kliwer et al., The Journal of Biological Chemistry Vol. 270, No. 22: 12953-12956, 1995).
As luciferase expressing plasmid, used was the plasmid which introduces the sequence wherein 5 yeast GAL4 binding sequences, UAS (upstream activating sequence), are tandemly connected to the upstream of the thymidine kinase promoter of pTAL-Luc (#6252-1, produced by Clontech) (UAS×5-TK-Luc) (1).
As PPAR-α receptor expressing plasmid, used was the plasmid which introduces the N-terminal domain of human GR (1-76aa), the yeast GAL4 DNA binding domain (1-147aa) and PPAR-α ligand binding domain (167-468aa) to NotI site and SalI site of pExchange-1 core vector (#211176, produced by Stratagene) (hGR-GAL4-hPPAR-α) (2). The plasmid mixed solution used in the reporter assay of PPAR-α contains above (1), (2) and plasmid pcDNA3.1(−) as a carrier in the weight ratio of 4:1:3.
The medium having the following composition was used for seeding cell line CV-1 used in the reporter assay, derived from the kidney of an African green monkey, on the plate; and for diluting the tested compounds. Used was Dulbecco modified Eagle medium (D2902 without phenol red, produced by SIGMA) to which 3.7 g/L of NaHCO3, 3.5 g/L of D-glucose and 10% v/v fetal bovine serum were added.
as §1, with “PPAR-α” for “PPAR-γ”
as §2

Regarding `CCCCCCCCCCCC(=O)N[C@H](C(=O)O)C(C)(C)C` [Example 33], the PPAR-γ induction ratio in assay [1] stood at 30.2. In assay [2], the PPAR-α induction ratio was determined as 81.0.

With `CCCCCCCCCCCC(=O)N[C@H](C(=O)O)[C@H](C)CC` [Example 35], the PPAR-γ induction ratio in assay [1] stood at 21.1. In addition, the PPAR-α induction ratio in assay [2] is reported as 54.7.

With `CCCCCCCCCCCC(=O)N[C@H](C(=O)O)c1ccccc1` [Example 36], the PPAR-γ induction ratio in assay [1] was 8.7. Moreover, in assay [2], the PPAR-α induction ratio stood at 12.5.

On to `CCCCCCCCCCCC(=O)N[C@@H](Cc1ccc(OC)cc1)C(=O)O` [Example 37], for which the PPAR-γ induction ratio in assay [1] is recorded as 19.5. The PPAR-α induction ratio in assay [2] was 24.5.

Regarding `CCCCCCCCCCCC(=O)N[C@H](C(=O)O)C1CCCCC1` [Example 39], the PPAR-γ induction ratio in assay [1] is reported as 11.2. Besides, the PPAR-α induction ratio in assay [2] is given as 2.3.

As to `CCCCCCCCCCCC(=O)N[C@H](C(=O)O)C(c1ccccc1)c1ccccc1` [Example 40], the PPAR-γ induction ratio in assay [1] is given as 1.5. For the same compound, the PPAR-α induction ratio in assay [2] amounted to 2.0.

As to `CCCCCCCCCCCC(=O)N[C@@H](Cc1ccc(Cl)cc1)C(=O)O` [Example 42], the PPAR-γ induction ratio in assay [1] stood at 6.6. Also, in assay [2], the PPAR-α induction ratio is on record as 14.4.

Turning to `CCCCCCCCCCCC(=O)N[C@@H](Cc1csc2ccccc12)C(=O)O` [Example 43], the PPAR-γ induction ratio in assay [1] was determined as 2.2. The PPAR-α induction ratio in assay [2] is 3.0.

Consider `CCCCCCCCCCCC(=O)NC1(C(=O)O)CCCCCC1` [Example 44], for which the PPAR-γ induction ratio in assay [1] stood at 6.7. For the same compound, the PPAR-α induction ratio in assay [2] was 6.2.
